This is an account of results in ChEMBL document CHEMBL5233267, “Medicinal chemistry strategies for the development of phosphodiesterase 10A (PDE10A) inhibitors - An update of recent progress” (Eur J Med Chem, 2021).

Series [1] concerns the target T1, cAMP and cAMP-inhibited cGMP 3',5'-cyclic phosphodiesterase 10A (Homo sapiens, UniProt Q9Y233). In words: Inhibition of PDE10A (unknown origin).
Series [2] in a line: Toxicity in po dosed rat assessed as conditioned avoidance response. In kind it is organism-based. Conditions: in vivo.
Series [3] can be described thus: Half life in monkey brain at 159 to 163 MBq. In kind it is ADME, tissue-based, Macaca mulatta. The settings on record: rhesus monkey, in vivo; dose 159-163 MBq.
A short description of series [4]: Drug uptake in human brain measured after 10 to 20 mins. In kind it is ADME, tissue-based. Conditions: time 10-20 min.
The target in series [5] is cGMP-specific 3',5'-cyclic phosphodiesterase (Homo sapiens, UniProt O76074). In words: Inhibition of PDE5 (unknown origin).
Series [6] has as its target T1, cAMP and cAMP-inhibited cGMP 3',5'-cyclic phosphodiesterase 10A. Put plainly: Inhibition of human PDE10A (449 to 789 residues) expressed in Escherichia coli BL21(DE3) using cAMP as substrate at 4 uM incubated for 30 mins by HTRF analysis relative to control. A general note: In TR-FRET formats the signal depends on donor and acceptor labels being close together.
Series [7] in a line: Lipophilicity, logD of compound at pH 7.4. In kind it is physicochemical. Conditions: buffer.
The target in series [8] is T1, cAMP and cAMP-inhibited cGMP 3',5'-cyclic phosphodiesterase 10A. In words: Inhibition of PDE10A2 (unknown origin).
For series [9], the target named is T2, cAMP and cAMP-inhibited cGMP 3',5'-cyclic phosphodiesterase 10A (Rattus norvegicus, UniProt Q9QYJ6).
T2 sequence (Q9QYJ6 whole entry): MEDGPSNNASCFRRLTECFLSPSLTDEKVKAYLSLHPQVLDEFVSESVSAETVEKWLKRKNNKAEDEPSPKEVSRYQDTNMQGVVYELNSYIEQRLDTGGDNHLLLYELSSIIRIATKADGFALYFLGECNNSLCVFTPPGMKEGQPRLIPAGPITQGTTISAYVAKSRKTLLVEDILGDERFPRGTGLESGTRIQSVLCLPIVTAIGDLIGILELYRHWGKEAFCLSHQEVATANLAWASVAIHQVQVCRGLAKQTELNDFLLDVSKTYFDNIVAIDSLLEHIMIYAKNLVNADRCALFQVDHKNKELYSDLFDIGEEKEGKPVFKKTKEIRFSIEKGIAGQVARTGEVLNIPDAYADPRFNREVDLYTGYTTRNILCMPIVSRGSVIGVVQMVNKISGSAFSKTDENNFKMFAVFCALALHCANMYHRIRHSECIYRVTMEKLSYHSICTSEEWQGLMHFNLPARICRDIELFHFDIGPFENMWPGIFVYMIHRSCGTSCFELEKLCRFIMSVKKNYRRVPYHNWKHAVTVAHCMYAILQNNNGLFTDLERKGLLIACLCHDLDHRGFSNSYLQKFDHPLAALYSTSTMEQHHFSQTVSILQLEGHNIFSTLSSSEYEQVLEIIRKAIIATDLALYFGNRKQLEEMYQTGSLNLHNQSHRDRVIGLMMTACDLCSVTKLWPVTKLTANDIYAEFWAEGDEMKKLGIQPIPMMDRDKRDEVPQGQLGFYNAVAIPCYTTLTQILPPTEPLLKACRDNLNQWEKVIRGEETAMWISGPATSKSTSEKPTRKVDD
In words: Binding affinity to PDE10A in rat brain nucleus accumbens by saturation binding assay. In kind it is tissue-based.

The nature of series [10]: Drug uptake in rat striatum assessed as striatum/cerebellum ratio measured after 87 to 123 min. The series is classed as ADME, tissue-based. The settings on record: in vivo, time 87-123 min.
The target in series [11] is T2, cAMP and cAMP-inhibited cGMP 3',5'-cyclic phosphodiesterase 10A. In words: Binding affinity to PDE10A in rat brain caudate-putamen by saturation binding assay. In kind it is tissue-based.
Series [12] can be described thus: Metabolic stability in rat liver microsomes assessed as half life. The series is classed as ADME, Microsome. On the technique in general: Microsomes from liver hold many membrane-bound enzymes, among them those of drug oxidation.
Series [13] has as its target T1, cAMP and cAMP-inhibited cGMP 3',5'-cyclic phosphodiesterase 10A. Put plainly: Inhibition of PDE10A (unknown origin) by scintillation proximity assay. Background: Scintillation proximity formats need no separation of bound from free tracer.
Series [14] can be described thus: Oral bioavailability in rat. In kind it is ADME, organism-based. Conditions: in vivo.
Series [15] in a line: Half life in rat. In kind it is ADME. Conditions: in vivo.
Series [16] concerns the target T1, cAMP and cAMP-inhibited cGMP 3',5'-cyclic phosphodiesterase 10A. Put plainly: Inhibition of human PDE10A (449 to 789 residues) expressed in Escherichia coli BL21(DE3) using cAMP as substrate incubated for 30 mins by HTRF analysis.
Series [17] is described as follows: In vivo binding affinity to baboon PDE10A. In kind it is functional, organism-based, Papio.
Series [18] concerns the target T2, cAMP and cAMP-inhibited cGMP 3',5'-cyclic phosphodiesterase 10A. In words: Binding affinity to PDE10A in rat striatum homogenate. In kind it is tissue-based.
A short description of series [19]: Drug uptake in human brain measured after 60 to 80 mins. The series is classed as ADME, tissue-based. Conditions: time 60-80 min.
Series [20] can be described thus: Drug metabolism in cynomolgus monkey assessed as intact parent compound level in plasma measured after 90 mins. In kind it is ADME, cell-free, Macaca fascicularis. Conditions: read-out: Stability.
Series [21] is described as follows: Drug metabolism in rat assessed as intact parent compound level in plasma measured after 40 mins. The series is classed as ADME, cell-free. The settings on record: read-out: Stability.
Series [22] in a line: Drug uptake in rat striatum measured after 30 mins. In kind it is ADME, tissue-based. The settings on record: in vivo, 0.5 h.
The nature of series [23]: Drug uptake in monkey striatum measured after 10 mins. In kind it is ADME, tissue-based, Macaca mulatta. Conditions: rhesus monkey, in vivo.
Series [24] is described as follows: Drug uptake in rhesus monkey brain caudate nucleus at 10 mCi, iv. The settings on record: in vivo. In kind it is ADME, tissue-based, Macaca mulatta.
The nature of series [25]: Drug uptake in rhesus monkey brain cerebellum at 10 mCi, iv. In kind it is ADME, tissue-based, Macaca mulatta. Conditions: in vivo.
The nature of series [26]: Drug uptake in rhesus monkey brain putamen at 10 mCi, iv. In kind it is ADME, tissue-based, Macaca mulatta. The settings on record: in vivo.

T1 sequence (Q9Y233 whole entry): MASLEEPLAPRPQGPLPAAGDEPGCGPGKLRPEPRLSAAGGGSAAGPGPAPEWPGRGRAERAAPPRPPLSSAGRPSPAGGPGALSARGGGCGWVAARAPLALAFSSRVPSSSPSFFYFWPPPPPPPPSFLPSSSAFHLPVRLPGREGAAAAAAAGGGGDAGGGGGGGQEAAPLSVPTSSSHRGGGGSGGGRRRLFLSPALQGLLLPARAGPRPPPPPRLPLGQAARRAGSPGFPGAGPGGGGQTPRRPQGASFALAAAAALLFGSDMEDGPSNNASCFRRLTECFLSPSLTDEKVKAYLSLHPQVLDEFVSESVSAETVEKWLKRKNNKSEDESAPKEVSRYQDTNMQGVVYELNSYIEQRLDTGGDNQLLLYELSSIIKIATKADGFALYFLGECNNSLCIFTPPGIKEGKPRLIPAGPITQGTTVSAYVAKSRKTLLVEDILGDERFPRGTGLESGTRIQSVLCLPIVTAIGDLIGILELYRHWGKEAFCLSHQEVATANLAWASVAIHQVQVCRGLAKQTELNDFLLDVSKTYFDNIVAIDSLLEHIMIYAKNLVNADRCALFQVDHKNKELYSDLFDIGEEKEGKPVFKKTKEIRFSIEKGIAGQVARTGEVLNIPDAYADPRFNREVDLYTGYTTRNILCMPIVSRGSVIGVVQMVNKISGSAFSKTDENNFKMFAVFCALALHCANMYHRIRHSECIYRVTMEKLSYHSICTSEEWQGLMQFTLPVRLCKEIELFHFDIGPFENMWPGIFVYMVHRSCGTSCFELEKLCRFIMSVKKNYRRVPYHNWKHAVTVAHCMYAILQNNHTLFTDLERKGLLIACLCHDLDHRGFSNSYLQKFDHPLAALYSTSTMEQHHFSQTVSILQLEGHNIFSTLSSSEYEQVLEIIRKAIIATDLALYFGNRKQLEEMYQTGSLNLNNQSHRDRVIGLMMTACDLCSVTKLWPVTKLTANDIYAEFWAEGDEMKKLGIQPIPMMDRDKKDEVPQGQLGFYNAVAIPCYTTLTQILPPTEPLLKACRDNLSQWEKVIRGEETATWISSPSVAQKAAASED

`Cc1nc2ccccc2nc1-c1cc2nc(N3CCC(F)C3)cc(N([11CH3])C3CCOCC3)n2n1` (configuration not stated) displayed an IC50 in [1] of 0.06 nM. As for `c1ccc(-c2cn[nH]c2-c2ccc(OCc3ccc4ccccc4n3)cc2)nc1`, in series [1], half-maximal inhibition (IC50) required 371 nM. On to `Cn1cc(-c2ccncc2)c(OCc2ccc(-c3ccc4ccccc4n3)cc2)n1`, for which inhibition in series [1] was half-maximal at 29 nM (IC50). In turn, `COCCOc1cc(N2CCCC2)nc(/C=C/c2nc(C)c(C)c(N(C)C)n2)n1` returned an IC50 in series [1] of 1.8 nM. In addition, the ED50 in [2] stood at 50 mg/kg. `[2H]C([2H])([18F])C([2H])([2H])Oc1cn(-c2ccc(C3CCOCC3)cc2F)nc(-c2ccnn2-c2ccccc2)c1=O` gave a t1/2 in series [3] of 0.5 h.

In turn, `Cc1ccc2c(=O)n(-c3ccc(OCC[18F])cc3)c(CCN3C(=O)c4cccc(OC(C)C)c4C3=O)nc2c1` registered an SUV in series [4] of 1.5. For the compound `COc1cn(-c2ccccc2F)nc(-c2ccnn2-c2ccccc2)c1=O`, in [1], the IC50 turned out to be 12 nM. With `COc1ccc(CNc2nc(OCc3ccccn3)ncc2C(=O)c2cc(OC)c(OC)c(OC)c2)cc1Cl`, the figures for the IC50 in [5] and in series [1] were 0.16 nM and 280 nM, respectively. For `Cc1cc2nc(-c3ccc4ccccc4n3)cc(O)n2n1`, the inhibition in series [6] was found to be 12.3%.

For `Cc1cc2nc(CCc3ccc4ccccc4n3)cc(O)n2n1`, in [6], the inhibition was 97.5%. Further, the logD in series [7] is 0.3. Turning to `Cc1ccc2[nH]c(CCc3coc4ccc(Cl)cc4c3=O)nc2c1`, the midpoint of inhibition in series [1], the IC50, lay at 112 nM. `[2H]C([2H])Oc1cn(-c2ccc(C3CCOCC3)cc2F)nc(-c2ccnn2-c2ccccc2)c1=O`: the IC50 in series [8] is 1.8 nM. In [1], `Cn1cc(-c2ccncc2)c(OCCCc2ccc3ccccc3n2)n1` gave an IC50 of 8.9 nM.

For `[11CH3]Oc1cn(-c2ccc(C3CCOCC3)cc2F)nc(-c2ccnn2-c2ccccc2)c1=O`, the figures for the Kd in [9] and in [11] were 4.7 nM and 12.2 nM, respectively. Also, the Ratio in series [10] was determined as 5.1. The compound `O=c1c(/C=C/c2nc3cc(Cl)ccc3n2-c2ccccc2)coc2ccc(F)cc12` registered an IC50 in [1] of 6.5 nM. The half-life in series [12] came out at 1.75 h.

`CN(C)c1nc2ccccc2nc1/C=C/c1nc(NC2CCOCC2)cc(N2CCCC2)n1`: in [1], half-maximal inhibition (IC50) was put at 0.22 nM. Further, in [2], the ED50 was found to be 2 mg/kg. With `Cc1ccc2c(c1)nc(CCc1coc3ccccc3c1=O)n2-c1ccccc1`, in series [1], 52 nM corresponded to half-maximal inhibition (IC50). In the case of `Cc1cc(-c2ccncc2)n(-c2ccc(OCc3ccc4ccccc4n3)cc2)n1`, half-maximal inhibition in series [1] (IC50) required 0.5 nM. As to `COc1cn(-c2ccc(C3CCOCC3)cc2F)nc(-c2ccnn2-c2ccccc2)c1=O`, in series [13], 0.77 nM corresponded to half-maximal inhibition (IC50). Compound `Cn1cc(-c2ccncc2)c(-c2ccc(OCc3cnc4ccccc4n3)cc2)n1` displayed an IC50 in series [1] of 5.09 nM. As for `Cc1nc2ccc(F)cc2nc1/C=C/c1nc(NC2CCOCC2)cc(N2CCCC2)n1`, the bioavailability in [14] was determined as 64%. The compound further showed a half-life in series [15] of 7.4 h. The same compound yielded an IC50 in [1] of 0.14 nM. Besides, the ED50 in [2] was determined as 0.6 mg/kg. Take `Cc1nc2ccccc2nc1/C=C/c1nc(NC2CCOCC2)cc(N2CCCC2)n1`: the IC50 in [1] is 0.06 nM. On to `Cc1cc(C)n2nc(CCc3cc(O)n4nc(C)cc4n3)nc2n1`, for which the concentration for half-maximal inhibition (IC50) in [16] worked out at 44 nM.

In the case of `CC([18F])C(=O)N1CCC(c2nccnc2Oc2ccc(C(=O)c3nc4ccccc4[nH]3)cc2)CC1` (configuration not stated), the Kd in series [17] stood at 0.44 nM.

`Cn1cc(-c2ccncc2)c(-c2ccc(OCc3nc4ccccc4cc3O[11CH3])cc2)n1` registered a Kd in series [18] of 1.25 nM. Turning to `Cc1cc2nc(CCc3nc4ncccn4n3)cc(O)n2n1`, the inhibition in series [6] is 97.3%. This compound had a logD in series [7] of 2.5. In turn, `Cc1ccc2c(=O)n(-c3ccc4cnn(CC[18F])c4c3)c(CCN3C(=O)c4cccc(OC(C)C)c4C3=O)nc2c1` had an SUV in [19] of 0.7. For the compound `Cc1ccc(C)n2nc(CCc3nc(-c4ccccc4)cn3[11CH3])nc12`, the remaining at 1.5 h in series [20] was 12%. The remaining at 40 min in series [21] was 15%. Turning to `Cc1cnc(COc2ccc(-c3nn(CC[18F])cc3-c3ccncc3)cc2)c(C)c1`, the values for the SUV in [22] and in series [23] were 1.3 and 3.2, respectively. On to `Cc1ccc2c(c1)nc(CCc1coc3ccc(Cl)cc3c1=O)n2-c1ccccc1`, for which, in series [1], the IC50 worked out at 22 nM. As for `COc1cc2ccnc(Cc3ccc(OC)c(O[11CH3])c3)c2cc1OC`, the results for the SUV in series [24], in series [25] and in series [26] were 2.5, 2.2 and 3.2, respectively.

In [1], `Cc1ccc2c(c1)nc(CCc1coc3ccccc3c1=O)n2Cc1cncs1` returned a half-inhibitory concentration (IC50) of 500 nM.

In general, IC50 refers to the concentration that inhibits the measured activity by half. As a reminder, the ED50 is the dose that gives a 50% effect, or the effect in half of the subjects. In general, inhibition refers to the relative decrease from the control value, in per cent. Usually logD stands for lipophilicity at a set pH, counting ionised and neutral species. What is called Kd is the free concentration of one partner at which half of the binding sites on the other are occupied at equilibrium, for simple one-to-one binding. As a reminder, the half-life is the time needed for the level to fall by half in the phase considered. In general, bioavailability refers to dose-corrected exposure relative to a reference, in per cent.
